Values joined by “and” are separate entries in the source; they are usually repeats but may differ in a detail not shown here. Identical values can stand only once. Like-named read-outs stand apart in the source and are kept apart here.
Assays:
[1] = Pharmacokinetics in ICR mice after intravenous and intragastric administration; format: in vivo; settings: for MRT last: read-out: MRT(0-t); for MRT inf: read-out: MRT(0-∞); for Vd: read-out: Vz
Outline: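 Male ICR mice, fasted overnight, n=3 per route, given 2 mg/kg IV or 5 mg/kg intragastric in 5% DMSO/40% PEG400/55% (10% HP-β-CD in saline). Plasma drug levels measured by LC-MS/MS after protein precipitation (LLOQ 1 ng/mL); noncompartmental AUC, t1/2, MRT, Cmax, Tmax, F, Vz, CL derived.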

MDM2 = molecular target: T1, MDM2 (Homo sapiens, UniProt Q00987); assay: Inhibition test of MDM2-P53 (GST-MDM2, Biotin-P53, Anti-GST-Tb, SA-XL665); format: binding
T1 construct: made in house
Outline: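 Compounds, serially diluted 5-fold (twelve concentrations), were shaken for 90 min at 25° C with a mix of GST-MDM2 (4 nM final), Biotin-P53, anti-GST-Tb and SA-XL665. Buffer: 1×PBS, 0.1% BSA, 5 mM DTT, 1 mM AEBSF; signal read on a microplate reader.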

[2] = test system: human osteosarcoma cell line SJSA-1; assay: Inhibition of proliferation of human osteosarcoma cell line SJSA-1 (DAPI staining, In Cell Analyzer); settings: Homo sapiens, SJSA-1, 72 h, read-out: IC50 (nM), inhibitory activity on proliferation of human osteosarcoma cell line SJSA-1, SJSA-1, incubated 72 h
[3] = ICR mice, IV 2 mg/kg, individual animal, 2 mg/kg
[4] = ICR mice, PO 5 mg/kg, individual animal, 5 mg/kg
[5] = male, ICR, mouse, plasma, iv, 2 mg/kg, ICR mice, IV 2 mg/kg, individual animal
[6] = male, ICR, mouse, plasma, iv, 2 mg/kg, ICR mice, IV 2 mg/kg, mean of 3 animals
[7] = male, ICR, mouse, plasma, iv, 2 mg/kg, ICR mice, IV 2 mg/kg, mean of 3 animals, read-out: AUC(0-t)
[8] = male, ICR, mouse, plasma, iv, 2 mg/kg, ICR mice, IV 2 mg/kg, mean of 3 animals, read-out: Cmax
[9] = male, ICR, mouse, plasma, iv, 2 mg/kg, ICR mice, IV 2 mg/kg, mean of 3 animals, read-out: Tmax
[10] = male, ICR, mouse, plasma, iv, 2 mg/kg, ICR mice, IV 2 mg/kg, mean of 3 animals, read-out: t1/2 (converted)
[11] = male, ICR, mouse, plasma, po, 5 mg/kg, ICR mice, PO 5 mg/kg, individual animal
[12] = male, ICR, mouse, plasma, po, 5 mg/kg, ICR mice, PO 5 mg/kg, mean of 3 animals
[13] = male, ICR, mouse, plasma, po, 5 mg/kg, ICR mice, PO 5 mg/kg, mean of 3 animals, read-out: AUC(0-t)
[14] = male, ICR, mouse, plasma, po, 5 mg/kg, ICR mice, PO 5 mg/kg, mean of 3 animals, read-out: Cmax
[15] = male, ICR, mouse, plasma, po, 5 mg/kg, ICR mice, PO 5 mg/kg, mean of 3 animals, read-out: Tmax
[16] = male, ICR, mouse, plasma, po, 5 mg/kg, ICR mice, PO 5 mg/kg, mean of 3 animals, read-out: t1/2 (converted)
[17] = male, ICR, mouse, plasma, po, 5 mg/kg, oral intragastric administration 5 mg/kg, read-out: AUC0-t
[18] = ICR mice, IV 2 mg/kg, individual animals 301-303, 2 mg/kg
[19] = ICR mice, PO 5 mg/kg, individual animals 401-403, 5 mg/kg
[20] = male, ICR, mouse, plasma, iv, 2 mg/kg, ICR mice, IV 2 mg/kg, individual animals 301-303
[21] = male, ICR, mouse, plasma, po, 5 mg/kg, ICR mice, PO 5 mg/kg, individual animals 401-403

T1 sequence (Q00987 whole entry): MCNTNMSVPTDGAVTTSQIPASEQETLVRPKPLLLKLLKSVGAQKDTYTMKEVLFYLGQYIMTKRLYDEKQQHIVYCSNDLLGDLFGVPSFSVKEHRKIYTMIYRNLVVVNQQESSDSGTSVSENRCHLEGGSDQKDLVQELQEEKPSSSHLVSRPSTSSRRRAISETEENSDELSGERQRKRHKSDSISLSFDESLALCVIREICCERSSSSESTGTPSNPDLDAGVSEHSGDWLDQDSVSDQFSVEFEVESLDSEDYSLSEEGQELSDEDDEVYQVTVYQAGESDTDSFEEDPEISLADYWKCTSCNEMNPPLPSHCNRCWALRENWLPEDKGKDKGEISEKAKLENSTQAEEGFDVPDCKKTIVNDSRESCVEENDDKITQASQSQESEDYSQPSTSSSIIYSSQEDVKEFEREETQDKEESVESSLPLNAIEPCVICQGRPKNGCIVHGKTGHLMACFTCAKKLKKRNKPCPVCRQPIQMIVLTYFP

COc1cc(OC)c(-c2nc3c(n2C(C)C)[C@@]2(C(=O)Nc4cc(Cl)ccc42)N(c2cc(Cl)ccc2F)C3=O)cn1 [Example S-133, (S)-6-chloro-5′-(5-chloro-2-fluorophenyl)-2′-(4,6-dimethoxypyridin-3-yl)-3′-isopropyl-3′H-spiro[dihydroindole-3,4′-pyrrolo[3,4-d]imidazole]-2,6′(5′H)-dione]
AUC(0-t) [1, 3]: 3187.22 ng·h/mL and 2904.29 ng·h/mL | AUC(0-∞) [1, 3]: 3247.82 ng·h/mL and 3022.24 ng·h/mL | CL [1, 3]: 10.26 mL/min/kg and 11.03 mL/min/kg | Cmax [1, 3]: 2521.09 ng/mL and 2055.95 ng/mL | MRT(0-t) [1, 3]: 1.05 h and 1.20 h | MRT(0-∞) [1, 3]: 1.17 h and 1.45 h | Vz [1, 3]: 1.01 L/kg and 1.16 L/kg | t1/2 [1, 3]: 1.13 h and 1.22 h | AUC(0-t) [1, 4]: 4282.62 ng·h/mL and 5953.82 ng·h/mL | AUC(0-∞) [1, 4]: 4314.80 ng·h/mL and 5994.87 ng·h/mL | Cmax [1, 4]: 1489.30 ng/mL and 2195.02 ng/mL | MRT(0-t) [1, 4]: 2.17 h and 2.05 h | MRT(0-∞) [1, 4]: 2.22 h and 2.10 h | t1/2 [1, 4]: 1.05 h and 1.04 h | AUC(0-inf) [1, 5]: 4700 ng·h/mL | clearance [1, 5]: 7.09 mL/min/kg | AUC(0-t) ([1]; male, ICR, mouse, plasma, iv, 2 mg/kg, ICR mice, IV 2 mg/kg, individual animal, read-out: AUC(0-t)): 4600 ng·h/mL | Cmax ([1]; male, ICR, mouse, plasma, iv, 2 mg/kg, ICR mice, IV 2 mg/kg, individual animal, read-out: Cmax): 2980 ng/mL | MRT last [1, 5]: 1.18 h | MRT inf [1, 5]: 1.31 h | Tmax ([1]; male, ICR, mouse, plasma, iv, 2 mg/kg, ICR mice, IV 2 mg/kg, individual animal, read-out: Tmax): 0.08 h | Vd [1, 5]: 0.66 L/kg | half-life ([1]; male, ICR, mouse, plasma, iv, 2 mg/kg, ICR mice, IV 2 mg/kg, individual animal, read-out: t1/2 (converted)): 1.07 h | AUC(0-inf) [1, 6]: 3660 ng·h/mL | clearance [1, 6]: 9.46 mL/min/kg | AUC(0-t) [1, 7]: 3560 ng·h/mL | Cmax [1, 8]: 2520 ng/mL | MRT last [1, 6]: 1.14 h | MRT inf [1, 6]: 1.31 h | Tmax [1, 9]: 0.083 h | Vd [1, 6]: 0.94 L/kg | half-life [1, 10]: 1.14 h | AUC(0-inf) [1, 11]: 6150 ng·h/mL | AUC(0-t) ([1]; male, ICR, mouse, plasma, po, 5 mg/kg, ICR mice, PO 5 mg/kg, individual animal, read-out: AUC(0-t)): 6070 ng·h/mL | Cmax ([1]; male, ICR, mouse, plasma, po, 5 mg/kg, ICR mice, PO 5 mg/kg, individual animal, read-out: Cmax): 1570 ng/mL | MRT last [1, 11]: 2.34 h | MRT inf [1, 11]: 2.43 h | Tmax ([1]; male, ICR, mouse, plasma, po, 5 mg/kg, ICR mice, PO 5 mg/kg, individual animal, read-out: Tmax): 1 h | half-life ([1]; male, ICR, mouse, plasma, po, 5 mg/kg, ICR mice, PO 5 mg/kg, individual animal, read-out: t1/2 (converted)): 1.15 h | AUC(0-inf) [1, 12]: 5490 ng·h/mL | AUC(0-t) [1, 13]: 5440 ng·h/mL | Cmax [1, 14]: 1750 ng/mL | MRT last [1, 12]: 2.19 h | MRT inf [1, 12]: 2.25 h | Tmax [1, 15]: 1 h | half-life [1, 16]: 1.08 h | AUC(0-t) [1, 17]: 5440 ng·h/mL | bioavailability ([1]; male, mouse, plasma, ICR mice, PO 5 mg/kg vs IV 2 mg/kg, from mean values, read-out: F* (bioavailability)): 61% | IC50 (MDM2): 1.41 nM | IC50 [2]: 99.8 nM

CCOc1ncc(-c2nc3c(n2C(C)C)[C@@]2(C(=O)Nc4cc(Cl)ccc42)N(c2cc(Cl)cnc2C)C3=O)c(OC)n1 [Example S-134, (S)-6-chloro-5′-(5-chloro-2-methylpyridin-3-yl)-2′-(2-ethoxy-4-methoxypyrimidin-5-yl)-3′-isopropyl-3′H-spiro[dihydroindole-3,4′-pyrrolo[3,4-d]imidazole]-2,6′(5′H)-dione]
AUC(0-t) [1, 18]: 7289.25 ng·h/mL and 6534.27 ng·h/mL | AUC(0-∞) [1, 18]: 7419.12 ng·h/mL and 6880.52 ng·h/mL | CL [1, 18]: 4.49 mL/min/kg and 4.84 mL/min/kg | Cmax [1, 18]: 4224.01 ng/mL and 3408.57 ng/mL | MRT(0-t) [1, 18]: 1.28 h and 1.50 h | MRT(0-∞) [1, 18]: 1.39 h and 1.83 h | Tmax [1, 18]: 0.08 h and 0.25 h | Vz [1, 18]: 0.42 L/kg and 0.61 L/kg | t1/2 [1, 18]: 1.07 h and 1.47 h | F* ([1]; ICR mice, PO 5 mg/kg vs IV 2 mg/kg, mean): 47.70% | AUC(0-t) [1, 19]: 7889.97 ng·h/mL and 4859.23 ng·h/mL | AUC(0-∞) [1, 19]: 8123.13 ng·h/mL and 4978.41 ng·h/mL | Cmax [1, 19]: 3905.15 ng/mL and 3059.53 ng/mL and 1591.65 ng/mL | MRT(0-t) [1, 19]: 2.21 h | MRT(0-∞) [1, 19]: 2.28 h and 2.40 h | Tmax [1, 19]: 0.25 h | t1/2 [1, 19]: 1.54 h and 1.43 h | AUC(0-inf) [1, 20]: 5060 ng·h/mL | clearance [1, 20]: 6.59 mL/min/kg | AUC(0-t) ([1]; male, ICR, mouse, plasma, iv, 2 mg/kg, ICR mice, IV 2 mg/kg, individual animals 301-303, read-out: AUC(0-t)): 5020 ng·h/mL | Cmax ([1]; male, ICR, mouse, plasma, iv, 2 mg/kg, ICR mice, IV 2 mg/kg, individual animals 301-303, read-out: Cmax): 3520 ng/mL | MRT last [1, 20]: 1.17 h | MRT inf [1, 20]: 1.23 h | Vd [1, 20]: 0.53 L/kg | half-life ([1]; male, ICR, mouse, plasma, iv, 2 mg/kg, ICR mice, IV 2 mg/kg, individual animals 301-303, read-out: t1/2 (converted)): 0.93 h | AUC(0-inf) [1, 6]: 6450 ng·h/mL | clearance [1, 6]: 5.31 mL/min/kg | AUC(0-t) [1, 7]: 6280 ng·h/mL | Cmax [1, 8]: 3720 ng/mL | MRT last [1, 6]: 1.32 h | MRT inf [1, 6]: 1.48 h | Tmax [1, 9]: 0.14 h | Vd [1, 6]: 0.52 L/kg | half-life [1, 10]: 1.15 h | AUC(0-inf) [1, 21]: 9930 ng·h/mL | AUC(0-t) ([1]; male, ICR, mouse, plasma, po, 5 mg/kg, ICR mice, PO 5 mg/kg, individual animals 401-403, read-out: AUC(0-t)): 9720 ng·h/mL | MRT last [1, 21]: 2.04 h | MRT inf [1, 21]: 2.21 h | Tmax ([1]; male, ICR, mouse, plasma, po, 5 mg/kg, ICR mice, PO 5 mg/kg, individual animals 401-403, read-out: Tmax): 0.5 h | half-life ([1]; male, ICR, mouse, plasma, po, 5 mg/kg, ICR mice, PO 5 mg/kg, individual animals 401-403, read-out: t1/2 (converted)): 1.38 h | AUC(0-inf) [1, 12]: 7680 ng·h/mL | AUC(0-t) [1, 13]: 7490 ng·h/mL | Cmax [1, 14]: 2850 ng/mL | MRT last [1, 12]: 2.1 h | MRT inf [1, 12]: 2.29 h | Tmax [1, 15]: 0.42 h | half-life [1, 16]: 1.45 h | AUC(0-t) [1, 17]: 7490 ng·h/mL | half-life ([1]; male, ICR, mouse, plasma, po, 5 mg/kg, oral intragastric administration 5 mg/kg, read-out: half-life (converted)): 1.45 h | IC50 (MDM2): 2.6 nM | IC50 [2]: 82.2 nM
